Experimental findings from ChEMBL document CHEMBL4680307, “Potent leads based on CA-19L, an anti-HIV active HIV-1 capsid fragment” (Bioorg Med Chem, 2021) are described below.

pEC50: −log10 of the molar value. Where only a bound is given, the exact number is not on record here.

A short description of data set [1]: Cytotoxicity against in human MT-4 after 5 days by MTT assay. It is filed as cell-based, MT4. The settings on record: MT-4 cells, time 5 day. A general note: Formazan colour is commonly taken as a measure of viable cells.
The subject of data set [2] is Human immunodeficiency virus 1. Kind of data set: Antiviral activity against HIV-1 NL4-3 in human MT-4 cells assessed as virus induced cytopathic effect incubated for 5 days by MTT assay. The note with it: Human immunodeficiency virus 1, NL4-3, MT4, 120 h. Format: functional, organism-based. In general terms: Cytopathic effects are the visible damage that an infection or toxin causes in cultured cells.

Data set [3] deals with Human immunodeficiency virus 1. Kind of data set: Antiviral activity against HIV-1 NL(AD8) in human PM1/CCR5 cells assessed as virus induced cytopathic effect incubated for 5 days by MTT assay. It is filed as functional, organism-based. The note with it: Human immunodeficiency virus 1, NL(AD8), PM1/CCR5, 120 h.
The test system of data set [4] is Human immunodeficiency virus 1. Kind of data set: Antiviral activity against HIV-1 NL(AD8) in human PM1/CCR5 cells assessed as virus induced cytopathic effect at 50 uM incubated for 5 days by MTT assay. Format: functional. The settings on record: Human immunodeficiency virus 1, NL(AD8), PM1/CCR5, 120 h, time 5 day.
Data set [5] deals with Human immunodeficiency virus 1. Kind of data set: Antiviral activity against HIV-1 NL4-3 in human MT-4 cells assessed as virus induced cytopathic effect at 25 uM incubated for 5 days by MTT assay. It is filed as functional. The settings on record: Human immunodeficiency virus 1, NL4-3, MT4, 120 h, time 5 day.

On to `CC[C@H](C)[C@H](NC(=O)[C@@H](NC(=O)[C@H](CCCCN)NC(=O)[C@H](CO)NC(=O)[C@H](CC(=O)O)NC(=O)[C@@H]1CCCN1C(=O)[C@H](CC(N)=O)NC(=O)[C@H](C)NC(=O)[C@H](CC(N)=O)NC(=O)[C@H](CCC(N)=O)NC(=O)[C@@H](NC(=O)[C@H](CC(C)C)NC(=O)[C@H](CC(C)C)NC(=O)[C@@H](NC(=O)[C@H](CCC(=O)O)NC(=O)[C@@H](NC(=O)[C@H](CCSC)NC(=O)[C@H](Cc1c[nH]c2ccccc12)NC(=O)[C@H](CC(N)=O)NC(=O)[C@H](CCCCN)NC(=O)[C@@H](NC(=O)[C@H](CCC(=O)O)NC(=O)[C@H](CCC(N)=O)NC(=O)[C@H](CO)NC(C)=O)C(C)C)[C@@H](C)O)[C@@H](C)O)C(C)C)[C@@H](C)O)C(=O)N[C@@H](CC(C)C)C(=O)N[C@@H](CCCCN)C(=O)N[C@@H](C)C(=O)N[C@@H](CC(C)C)C(=O)NCC(=O)N1CCC[C@H]1C(=O)NCC(=O)N[C@@H](C)C(=O)N[C@H](C(=O)NCC(=O)N[C@@H](CSCC(=O)N[C@@H](CCCNC(=N)N)C(=O)N[C@@H](CCCNC(=N)N)C(=O)N[C@@H](CCCNC(=N)N)C(=O)N[C@@H](CCCNC(=N)N)C(=O)N[C@@H](CCCNC(=N)N)C(=O)N[C@@H](CCCNC(=N)N)C(=O)N[C@@H](CCCNC(=N)N)C(=O)N[C@@H](CCCNC(=N)N)C(N)=O)C(N)=O)[C@@H](C)O`, for which the CC50 at 120 h in data set [1] is over 50 µM. The results for the pEC50 in data set [2] and in data set [3] were 4.66 and 4.30, respectively.
With `CSCC[C@H](NC(=O)[C@H](Cc1c[nH]c2ccccc12)NC(=O)[C@H](CC(N)=O)NC(=O)[C@H](CCCCN)NC(=O)[C@@H](NC(C)=O)C(C)C)C(=O)N[C@H](C(=O)N[C@@H](CCC(=O)O)C(=O)N[C@H](C(=O)N[C@@H](CC(C)C)C(=O)N[C@@H](CC(C)C)C(=O)N[C@H](C(=O)N[C@@H](CCC(N)=O)C(=O)N[C@@H](CC(N)=O)C(=O)N[C@@H](C)C(=O)N[C@@H](CC(N)=O)C(=O)NCC(=O)N[C@@H](CSCC(=O)N[C@@H](CCCNC(=N)N)C(=O)N[C@@H](CCCNC(=N)N)C(=O)N[C@@H](CCCNC(=N)N)C(=O)N[C@@H](CCCNC(=N)N)C(=O)N[C@@H](CCCNC(=N)N)C(=O)N[C@@H](CCCNC(=N)N)C(=O)N[C@@H](CCCNC(=N)N)C(=O)N[C@@H](CCCNC(=N)N)C(N)=O)C(N)=O)C(C)C)[C@@H](C)O)[C@@H](C)O`, the inhibition at 50 µM in data set [4] came to 40%. Also, the CC50 at 120 h in data set [1] was over 50 µM. Also, the pEC50 in data set [2] is under 4.30; in data set [3], 4.30. Moreover, the inhibition at 25 µM in data set [5] worked out at 27%.
As for `CC[C@H](C)[C@H](NC(=O)[C@@H](NC(=O)[C@H](CCCCN)NC(=O)[C@H](CO)NC(=O)[C@H](CC(=O)O)NC(=O)[C@@H]1CCCN1C(=O)[C@H](CC(N)=O)NC(=O)[C@H](C)NC(=O)[C@H](CC(N)=O)NC(=O)[C@H](CCC(N)=O)NC(=O)[C@@H](NC(=O)[C@H](CC(C)C)NC(=O)[C@H](CC(C)C)NC(=O)[C@@H](NC(=O)[C@H](CCC(=O)O)NC(=O)[C@@H](NC(=O)[C@H](CCSC)NC(=O)[C@H](Cc1c[nH]c2ccccc12)NC(=O)[C@H](CC(N)=O)NC(=O)[C@H](CCCCN)NC(=O)[C@@H](NC(=O)[C@H](CCC(=O)O)NC(=O)[C@H](CCC(N)=O)NC(=O)[C@H](CO)NC(C)=O)C(C)C)[C@@H](C)O)[C@@H](C)O)C(C)C)[C@@H](C)O)C(=O)N[C@@H](CC(C)C)C(=O)N[C@@H](CCCCN)C(=O)N[C@@H](C)C(=O)N[C@@H](CC(C)C)C(=O)NCC(=O)N[C@@H](CSCC(=O)N[C@@H](CCCNC(=N)N)C(=O)N[C@@H](CCCNC(=N)N)C(=O)N[C@@H](CCCNC(=N)N)C(=O)N[C@@H](CCCNC(=N)N)C(=O)N[C@@H](CCCNC(=N)N)C(=O)N[C@@H](CCCNC(=N)N)C(=O)N[C@@H](CCCNC(=N)N)C(=O)N[C@@H](CCCNC(=N)N)C(N)=O)C(N)=O`, in data set [1], the half-maximal cytotoxic concentration (CC50) at 120 h turned out to be 21 µM. Further, the pEC50 in data set [2] is under 4.60; in data set [3], 4.30. In data set [5], the inhibition at 25 µM is 39%.
Regarding `c1cc(CN2CCCNCCNCCCNCC2)ccc1CN1CCCNCCNCCCNCC1` [PLERIXAFOR], the cytotoxic concentration (CC50) at 120 h in data set [1] was over 50 µM. Besides, the pEC50 in data set [2] was 7.31; in data set [3] it was under 4.30.
On the same counts, the results for `COC[C@@H](c1ccc(C(F)(F)F)cc1)N1CCN(C2(C)CCN(C(=O)c3c(C)ncnc3C)CC2)C[C@@H]1C` [VICRIVIROC] are over 5 µM, under 5.30 and 6.68.
In the case of `Cc1cn([C@H]2C[C@H](N=[N+]=[N-])[C@@H](CO)O2)c(=O)[nH]c1=O` [ZIDOVUDINE], in data set [1], the CC50 at 120 h turned out to be 74 µM. For the same molecule, the negative logarithm of the EC50 (pEC50) was 7.03 in data set [2] and 5.48 in data set [3].

One may read the CC50 as the concentration that lowers cell viability or growth by half. One may read the pEC50 as the EC50 on a negative log10 scale, so that one unit is a factor of ten. The term inhibition denotes the relative decrease from the control value, in per cent.
